Assay results published in PMC6691788, “Design and synthesis of phthalazine-based compounds as potent anticancer agents with potential antiangiogenic activity via VEGFR-2 inhibition” (Journal of Enzyme Inhibition and Medicinal Chemistry, 2019).

Key:
M14 = test: NCI 60 cell panel SRB screen; format: cell-based; details: Homo sapiens; for activity at 10 µM: M14, read-out: percent cell growth promotion
SNB-75 = test: NCI 60 cell panel SRB screen; format: cell-based; details: Homo sapiens; for activity at 10 µM: SNB-75, single dose 10 μM, read-out: percent cell growth promotion
786-0 = test: NCI 60 cell panel SRB screen; format: cell-based; details: Homo sapiens; for activity at 10 µM: 786-0, single dose 10 μM, read-out: percent cell growth promotion
BT-549 = test: NCI 60 cell panel SRB screen; format: cell-based; details: Homo sapiens; for activity at 10 µM: BT-549, read-out: percent cell growth promotion
MCF7 = test: NCI 60 cell panel SRB screen; format: cell-based; details: Homo sapiens; for activity at 10 µM: MCF7, read-out: percent cell growth promotion
IGROV1 = test: NCI 60 cell panel SRB screen; format: cell-based; details: Homo sapiens, IGROV-1; for activity at 10 µM: IGROV1, single dose 10 μM, read-out: percent cell growth promotion
UO-31 = test: NCI 60 cell panel SRB screen; format: cell-based; details: Homo sapiens; for activity at 10 µM: UO-31, single dose 10 μM, read-out: percent cell growth promotion
UACC-62 = test: NCI 60 cell panel SRB screen; format: cell-based; details: for activity at 10 µM: UACC-62, read-out: percent cell growth promotion
SF-539 = test: NCI 60 cell panel SRB screen; format: cell-based, human; details: Homo sapiens, SF-539, 5 log dose
SK-MEL-2 = test: NCI 60 cell panel SRB screen; format: cell-based; details: Homo sapiens
EKVX = test: NCI 60 cell panel SRB screen; format: cell-based, human; details: Homo sapiens, 5 log dose
full NCI 60 cell panel = test: NCI 60 cell panel SRB screen, whole panel; format: cell-based, human; details: Homo sapiens, 60 cell, NCI 5-log dose, full 60 cell panel; read-out: GI50 values, range over the tested cell lines

## O=C(Nc1ccc(Nc2nncc3ccccc23)cc1)c1ccc(Cl)cc1 [Compound 5b, 4-Chloro-N-(4-(phthalazin-1-ylamino)phenyl)benzamide]
M14
  activity at 10 µM: 99.7%
SNB-75
  activity at 10 µM: 98.1%
786-0
  activity at 10 µM: 107%
BT-549
  activity at 10 µM: 107%
MCF7
  activity at 10 µM: 93%
IGROV1
  activity at 10 µM: 102%
UO-31
  activity at 10 µM: 78.6%
UACC-62; Homo sapiens
  activity at 10 µM: 89.8%

## Cc1nnc(Nc2ccc(NC(=O)c3ccc(Cl)cc3)cc2)c2ccccc12 [Compound 5d, 4-Chloro-N-(4–(4-methylphthalazin-1-ylamino)phenyl)benzamide]
M14
  activity at 10 µM: 97.1%
SNB-75
  activity at 10 µM: 81.2%
786-0
  activity at 10 µM: 109%
BT-549
  activity at 10 µM: 92.2%
MCF7
  activity at 10 µM: 84.5%
IGROV1
  activity at 10 µM: 101%
UO-31
  activity at 10 µM: 57.8%
UACC-62; Homo sapiens
  activity at 10 µM: 95.9%

## O=C(Nc1ccc(Cl)cc1)Nc1ccc(Nc2nncc3ccccc23)cc1 [Compound 6b, 1–(4-Chlorophenyl)-3–(4-(phthalazin-1-ylamino)phenyl)urea]
SF-539
  GI50: 2.88 µM
  IC (TGI): 11.5 µM
SF-539; 48 h, read-out: LC50 (the source's name)
  CC50: 36.6 µM
M14; M14
  GI50: 1.52 µM
M14; M14, read-out: TGI
  IC (TGI): 11.5 µM
M14
  activity at 10 µM: 19.3%
M14; M14, 5 log dose, 48 h, read-out: LC50 (the source's name)
  CC50: 40.7 µM
SK-MEL-2
  GI50: 2.7 µM
SK-MEL-2; read-out: TGI
  IC (TGI): 7.7 µM
SK-MEL-2; SK-MEL-2, 5 log dose, 48 h, read-out: LC50 (the source's name)
  CC50: 44.8 µM
SNB-75; SNB-75, 5 log dose
  GI50: 1.88 µM
  IC (TGI): 8.67 µM
SNB-75; SNB-75, 5 log dose, 48 h
  LC50 (concentration killing 50% of cells): 31.8 µM
SNB-75
  activity at 10 µM: 46.2%
EKVX
  GI50: 2.95 µM
  IC (TGI): 25.3 µM
EKVX; 48 h
  LC50: > 100 µM
786-0; 786-0, 5 log dose
  GI50: 3.09 µM
  IC (TGI): 25.2 µM
786-0; 786-0, 5 log dose, 48 h, read-out: LC50 (the source's name)
  CC50: > 100 µM
786-0
  activity at 10 µM: 50.4%
BT-549; BT-549
  GI50: 2.15 µM
BT-549; BT-549, read-out: TGI
  IC (TGI): 9.28 µM
BT-549
  activity at 10 µM: 15.7%
BT-549; BT-549, 5 log dose, 48 h, read-out: LC50 (the source's name)
  CC50: > 100 µM
Full NCI 60 cell panel
  GI50: 0.15 to 8.41 µM
MCF7; MCF7
  GI50: 1.43 µM
MCF7; MCF7, read-out: TGI
  IC (TGI): 8.32 µM
MCF7
  activity at 10 µM: 5.46%
MCF7; MCF7, 5 log dose, 48 h, read-out: LC50 (the source's name)
  CC50: 64.1 µM
IGROV1; IGROV1, 5 log dose
  GI50: 2.52 µM
  IC (TGI): 30.7 µM
IGROV1; IGROV1, 5 log dose, 48 h, read-out: LC50 (the source's name)
  CC50: > 100 µM
IGROV1
  activity at 10 µM: 39.7%
UO-31; UO-31, 5 log dose
  GI50: 1.9 µM
  IC (TGI): 15.8 µM
UO-31; UO-31, 5 log dose, 48 h, read-out: LC50 (the source's name)
  CC50: > 100 µM
UO-31
  activity at 10 µM: 19%
UACC-62; Homo sapiens, UACC-62
  GI50: 0.95 µM
UACC-62; Homo sapiens
  activity at 10 µM: 13.4%
UACC-62; Homo sapiens, UACC-62, 5 log dose, 48 h, read-out: LC50 (the source's name)
  CC50: 38.1 µM
UACC-62; UACC-62, 5 log dose
  TGI: 7.97 µM
